From patent US20260242452A1, “METHOD FOR DEGRADING TARGET PROTEIN” (Inter-University Research Institute Corporation Research …, priority 2023, published 2026)

Assays:
Format in all cases: cell-based, human
[1] = system: endogenous p53; test: Expression level of endogenous p53 by Western blotting; settings: 1 μM 5-Ph-IAA, 6 hours; cells expressing OsTIR1 (F74G) and p53 nanobody KR adapter
Protocol: (§1) Furthermore, the same experiment was performed using an adapter (WT adapter; KR adapter) containing a gene encoding a p53 nanobody (p53 nanobody WT gene sequence (SEQ ID NO: 11); p53 nanobody KR gene sequence (SEQ ID NO: 12)) (see the left part of FIG. 6). The cells were treated with 1 μM 5-Ph-IAA for 6 hours, and the expression level of endogenous p53 was confirmed by Western blotting. The results are shown in the right part of FIG. 6.
as §1, with “adapter; KR adapter; hybrid adapter) containing” for “adapter; KR adapter) containing”, “of FIG. 10). The cells” for “of FIG. 6). The cells”

[2] = system: DHC1-GFP; test: Degradation of DHC1-GFP, GFP fluorescence quantified by flow cytometry (FACS); settings: 1 μM 5-Ph-IAA, 4 hours; HCT116 cells expressing DHC1-GFP, OsTIR1 (F74G) and GFP nanobody adapter
Protocol: (§2) As an mAID-single-chain antibody (nanobody) gene (also referred to as an adapter), a wild-type (WT adapter) and a ubiquitination-resistant mutant (KR adapter) in which all lysine residues (K) in the amino acid sequence encoded by the mAID-single-chain antibody (nanobody) gene were substituted with arginine residues (R) were prepared.
(§3) A co-expression vector in which the OsTIR1 (F74G) gene and the WT adapter or the KR adapter were connected by a self-cleaving sequence P2A gene was prepared (see FIG. 2).
(§4) In the chromosome of HCT116 cells, DNA encoding GFP was introduced into the downstream of DNA encoding each of the nuclear protein SMC6 and the cytoplasmic protein DHC1 by transposon, and cells expressing SMC6-GFP and cells expressing DHC1-GFP were prepared.
(§5) A co-expression vector containing an adapter (WT adapter; KR adapter) that contains a gene encoding a GFP nanobody (GFP nanobody WT gene sequence (SEQ ID NO: 9); GFP nanobody KR gene sequence (SEQ ID NO: 10)), together with the OsTIR1 (F74G) gene, was introduced into the cells expressing each SMC6-GFP and DHC1-GFP. […]
(§6) These cells were treated with 1 μM 5-Ph-IAA for 4 hours, and the GFP fluorescence in the cells was quantified using flow cytometry. […]
as §6

[3] = system: RAD21-GFP; test: Degradation of RAD21-GFP, GFP fluorescence quantified by flow cytometry (FACS); settings: 1 μM 5-Ph-IAA, 4 hours; HCT116 cells expressing RAD21-GFP, OsTIR1 (F74G) and GFP nanobody adapter
Protocol: As the mAID-single-chain antibody (nanobody) gene, in addition to the WT adapter and the KR adapter, a hybrid adapter in which all lysine residues (K) in the amino acid sequence encoded by the mAID gene were substituted with arginine residues (R) was prepared. As in Example 1, a co-expression vector in which the OsTIR1 (F74G) gene and the WT adapter, the KR adapter, or the hybrid adapter were connected by a self-cleaving sequence P2A gene was prepared (see FIG. 7).
In the chromosome of HCT116 cells, DNA encoding GFP was added to the downstream of DNA encoding each of the nuclear protein SMC6, the nuclear protein RAD21, and the cytoplasmic protein DHC1 by genome editing, and cells expressing SMC6-GFP and cells expressing DHC1-GFP were prepared (see FIG. 8).
A co-expression vector containing an adapter (WT adapter; KR adapter; hybrid adapter) that contains a gene encoding a GFP nanobody (GFP nanobody WT (SEQ ID NO: 9); GFP nanobody KR (SEQ ID NO: 10)), together with the OsTIR1 (F74G) gene, was introduced into the cells expressing each SMC6-GFP, RAD21-GFP, and DHC1-GFP by transposon. As a control, a plasmid in which only OsTIR1 (F74G) and mAID were expressed was introduced (see FIG. 8).
as §6

[4] = system: SMC6-GFP; test: Degradation of SMC6-GFP, GFP fluorescence quantified by flow cytometry (FACS); settings: 1 μM 5-Ph-IAA, 4 hours; HCT116 cells expressing SMC6-GFP, OsTIR1 (F74G) and GFP nanobody adapter
Protocol: as §2, §3, §4, §5, §6, §6

[5] = system: endogenous RAS; test: Expression level of endogenous RAS by Western blotting; settings: 1 μM 5-Ph-IAA, 6 hours; cells expressing OsTIR1 (F74G) and RAS nanobody hybrid adapter
Protocol: Furthermore, the same experiment was performed using an adapter (KR adapter; hybrid adapter) containing a gene encoding a RAS nanobody (gene sequence of RAS nanobody WT (SEQ ID NO: 14), amino acid sequence of RAS nanobody WT (SEQ ID NO: 15); gene sequence of RAS nanobody KR (SEQ ID NO: 16), amino acid sequence of RAS nanobody KR (SEQ ID NO: 17)) (see the left part of FIG. 11). The cells were treated with 1 μM 5-Ph-IAA for 6 hours, and the expression level of endogenous RAS was confirmed by Western blotting. The results are shown in the right part of […].

O=C(O)Cc1c[nH]c2ccc(-c3ccccc3)cc12 [Formula 5-Ph-IAA, 5-Ph-IAA]
5-Ph-IAA-dependent degradation of endogenous p53 (Western blotting) [1]: could be degraded
5-Ph-IAA-dependent degradation of target protein DHC1-GFP (GFP fluorescence) [2]: could be degraded
5-Ph-IAA-dependent degradation of target protein RAD21-GFP (GFP fluorescence) [3]: could be degraded
5-Ph-IAA-dependent degradation of target protein SMC6-GFP (GFP fluorescence) [4]: could be degraded
5-Ph-IAA-dependent degradation of endogenous RAS (Western blotting) [5]: could be efficiently degraded
